Data reported in EPA's ToxValDB 9.5 (doi:10.2903/j.efsa.2016.4569).
In brackets after ≈: the same amount, converted by molar mass.

How the values were obtained:
Oncorhynchus mykiss = settings: acute; duration: 96 hours; mortality
Tagia sp. = settings: for NOEC: chronic/long-term, reproduction; for LC50: acute, mortality
Rattus norvegicus = settings: for LD50: acute, mortality
Daphnia magna = settings: chronic/long-term; duration: 21 days; reproduction
Oryctolagus sp. = settings: chronic; other
Apis mellifera = settings: acute, mortality
Lepomis macrochirus = settings: chronic/long-term; other
Folsomia candida = settings: chronic/long-term; reproduction
Aphidius rhopalosiphi = test: LR50; higher = less toxic; settings: not reported; mortality
[1] = short-term, duration: 28 days, M

## O=C(O)c1cc(-n2nc(CO)n(C(F)F)c2=O)c(F)cc1Cl
Oncorhynchus mykiss
  LC50: > 100 mg/L
Tagia sp.
  NOEC: 0.056 mg/kg
Rattus norvegicus; [1]
  NOAEL: 10.1 mg/kg-day

## Cc1nn(-c2cc(C=CC(=O)O)c(Cl)cc2F)c(=O)n1C(F)F
Tagia sp.
  LC50: > 500 mg/kg
Rattus norvegicus; [1]
  NOAEL: 1 mg/kg-day

## COc1cc(-n2nc(C)n(C(F)F)c2=O)c(F)cc1Cl
Oncorhynchus mykiss
  LC50: > 20.9 mg/L
Tagia sp.
  NOEC: 0.256 mg/kg
Rattus norvegicus; [1]
  NOAEL: 8.5 mg/kg-day

## O=C(O)c1cc(-n2nc(C(=O)O)n(C(F)F)c2=O)c(F)cc1Cl [F8426-dicarboxylic acid]
Oncorhynchus mykiss
  LC50: > 100 mg/L
Tagia sp.
  NOEC: 0.152 mg/kg
Rattus norvegicus; [1]
  NOAEL: 12.1 mg/kg-day

## Cc1nn(-c2cc(CC(C(=O)O)S(=O)(=O)O)c(Cl)cc2F)c(=O)n1C(F)F (stereo not drawn) [F8426-alpha-Sulfodeschloropropionic acid]
Oncorhynchus mykiss
  LC50: > 100 mg/L
Tagia sp.
  LC50: > 100 mg/kg
Rattus norvegicus; [1]
  NOAEL: 0.359 mg/kg-day

## Cc1nn(-c2cc(CCC(=O)O)c(Cl)cc2F)c(=O)n1C(F)F
Tagia sp.
  LC50: > 1000 mg/kg
Rattus norvegicus; short-term, M
  NOAEL: 1.4 mg/kg-day

## O=C(O)CCc1cc(-n2ncn(C(F)F)c2=O)c(F)cc1Cl [3-Desmethyl-F8426-propionic acid]
Rattus norvegicus; short-term, M
  NOAEL: 1.4 mg/kg-day

## CCOC(=O)C(Cl)Cc1cc(-n2nc(C)n(C(F)F)c2=O)c(F)cc1Cl (configuration not stated) [Carfentrazone-ethyl]
Daphnia magna
  NOEC: 0.22 mg/L
Oncorhynchus mykiss
  LC50: 1.6 mg/L (≈ 3.88 µM)
Oryctolagus sp.
  NOAEL: 40 mg/kg-day
Apis mellifera; dermal
  LD50: > 81 µg/piece
Apis mellifera; oral, unspecified
  LD50: > 81 µg/piece
Lepomis macrochirus
  NOEC: 0.0187 mg/L
Folsomia candida
  NOEC: 0.975 mg/kg
Tagia sp.
  LC50: > 410 mg/kg
  NOEC: 8 mg/kg
Rattus norvegicus; F
  LD50: > 5140 mg/kg-day
Rattus norvegicus; oral, M
  LD50: > 5000 mg/kg
Rattus norvegicus; subchronic, duration: 90 days, oral, hematological
  NOAEL: 58 mg/kg-day
Colinus virginianus; acute, oral, mortality
  LD50: > 2250 mg/kg-day
Colinus virginianus; chronic
  NOEC: 94 mg/kg-day
Aphidius rhopalosiphi
  LR50: 23.5 g/ha

## O=C(O)c1cc(-n2ncn(C(F)F)c2=O)c(F)cc1Cl [3-Desmethyl-F8426-benzoic acid]
Rattus norvegicus; [1]
  NOAEL: 5.4 mg/kg-day

## O=C(O)CCc1cc(-n2nc(CO)n(C(F)F)c2=O)c(F)cc1Cl [3-Hydroxymethyl-F8426-propionic acid]
Rattus norvegicus; [1]
  NOAEL: 1.4 mg/kg-day

## Cc1nn(-c2cc(C(=O)O)c(Cl)cc2F)c(=O)n1C(F)F
Oncorhynchus mykiss
  LC50: > 92.5 mg/L
Tagia sp.
  LC50: > 1000 mg/kg
Rattus norvegicus; [1]
  NOAEL: 5.4 mg/kg-day

## Cc1nn(-c2cc(CC(Cl)C(=O)O)c(Cl)cc2F)c(=O)n1C(F)F (configuration not stated) [Carfentrazone]
Oncorhynchus mykiss
  LC50: > 99.2 mg/L
Tagia sp.
  LC50: > 1000 mg/kg

## Cc1n[nH]c(=O)n1C(F)F
Oncorhynchus mykiss
  LC50: > 100 mg/L
Tagia sp.
  LC50: > 100 mg/kg
Rattus norvegicus; subchronic, duration: 90 days, M
  NOAEL: 0.666 mg/kg-day
